Measurements published in patent US12077586B2, “Bispecific antibodies for use in the treatment of hematological malignancies” (LAVA THERAPEUTICS N.V., priority 2018, dated 2024).

Tests used:
Jeko-1 cells = test: Cytotoxicity assay with Vγ9Vδ2-T cell lines, Jeko-1 target cells; assay type: cell-based, human; details: 2 hours pretreatment (50 μM pamidronate or 25 μM mevastatin), 1:2; for 1D7-5C8-induced lysis of pretreated Jeko-1 cells: 100 nM 1D7-5C8, 6 hours; for Vγ9Vδ2-T cell-mediated lysis of pretreated Jeko-1 cells: no bispecific antibody, 6 hours
Method: Target cells were then cocultured overnight with Vγ9Vδ2-T cell lines in a 1:1 ratio unless otherwise indicated. Viability was measured using Mitotracker Orange (25-minute incubation at 37° C., M7510) and To-pro-3 (10-minute incubation at room temperature; T3605, both Thermo Fisher Scientific).
If indicated, target cells were pretreated with 25 μM mevastatin (M2537, Sigma-Aldrich), 50 μM aminobisphosphonates (pamidronate, #12J08RD, TEVA Pharmachemie, Haarlem, the Netherlands) or medium control for 2 hours.
If indicated, cells were cultured with the indicated concentrations of all-trans retinoic acid (ATRA; R2625, Sigma-Aldrich) for 48 hours unless otherwise indicated. ATRA was washed away prior to cytotoxicity assays.
If indicated, target cells were pre-incubated with 5 μg/mL anti-CD1d mAb (clone 51.1, 350304, Biolegend, San Diego, CA, USA) and/or 10 μg/mL anti-CD277 mAb (clone 103.2, Creative Biolabs, Shirley, NY, USA) for 10 minutes.

[1] = tested on: CLL patient-derived Vγ9Vδ2-T cells; test: Activation, cytokine and degranulation assay with autologous CLL patient-derived Vγ9Vδ2-T cells; assay type: cell-based, human; details: overnight culture of CLL PBMC; 1D7-5C8 50 nM
From the text: (A-C) Activation of and cytokine production and degranulation by patient-derived Vγ9Vδ2-T cells. […] (D) Lysis of primary CLL cells by autologous Vγ9Vδ2-T cells. […] Live CLL cells were quantified by flow cytometry using counting beads (n=5). (E) Expansion of patient-derived Vγ9Vδ2-T cells. […] Percentage Vγ9Vδ2-T cells after 1 week (n=8). Data are presented as mean and SD. *P<0.05, **P<0.01, ***P<0.001. (A-D: one-way ANOVA followed by Dunnett's post hoc test compared to medium control; E: paired t-test).

iNKT cells = test: Modulation of iNKT cell activation (co-culture with Hela-CD1d cells); assay type: cell-based, human; details: 24 hr co-culture with Hela-CD1d pulsed with vehicle or α-GalCer; 1D12 100 nM, 1D22 1000 nM
From the text: FIG. 1. […] Representative dot-plots illustrating marked activation by 1D12 (A) or inhibition by 1D22 (B) of iNKT cells as depicted by CD25 expression, in addition to a marked increase (by 1D12) or decrease (by 1D22) in iNKT cell IFN-γ production (C and D). Data represent mean+SD of 3-4 individual experiments with iNKT obtained from different donors, **P<0.01, ***P<0.001, calculated with a one-way analysis of variance with Turkey's post hoc test.
To evaluate the capacity of 1D12 and 1D22 to stimulate or inhibit iNKT cell activation, 5×10^4 Hela-CD1d cells were seeded per well in a 96-well tissue culture plate and pulsed overnight with vehicle control (DMSO 0.01%) or 100 ng/ml α-GalCer. Cells were then washed with PBS and incubated with medium, or the anti-CD1d specific VHH for 1 hr at the indicated concentrations. Subsequently, 5×10^4 pure and resting iNKT were added to each well. After 24 hr, culture supernatants were analyzed for (induction or inhibition of) cytokine production by CBA (BD Biosciences) whereas iNKT cells were harvested and analyzed for CD25 expression by flow cytometry.

[2] = molecular target: T1, sulfatide-loaded CD1d tetramers (Homo sapiens, UniProt P15813); test: CD1d-tetramer binding on Jurkat-Vδ1 cells; details: ratio VHH:CD1d of ~4:1; tetramer 2 μg/ml
T1 construct: made in house
T1 sequence (P15813 20-301 limits assumed): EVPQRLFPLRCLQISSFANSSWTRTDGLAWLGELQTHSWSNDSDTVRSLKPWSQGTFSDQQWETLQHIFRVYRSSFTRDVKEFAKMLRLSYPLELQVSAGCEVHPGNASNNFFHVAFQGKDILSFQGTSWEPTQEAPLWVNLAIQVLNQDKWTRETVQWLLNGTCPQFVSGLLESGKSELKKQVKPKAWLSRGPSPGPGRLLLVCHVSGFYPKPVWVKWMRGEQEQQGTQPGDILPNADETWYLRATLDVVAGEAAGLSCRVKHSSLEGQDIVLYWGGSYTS
T1 sequence (P61769 21-119 partner): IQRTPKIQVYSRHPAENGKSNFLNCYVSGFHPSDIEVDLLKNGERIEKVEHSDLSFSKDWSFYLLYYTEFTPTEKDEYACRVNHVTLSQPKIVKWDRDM
Method: (§1) FIG. 2. Vδ1-sulf-CD1d interaction is prevented by anti-CD1d VHH 1D12 and reduced by 1D22. Endogenous or sulfatide loaded CD1d-PE tetramers were incubated with either PBS (control), 1D12 or 1D22 (4:1VHH:CD1d ratio) after which tetramers were used to stain Jurkat-Vδ1 cells (final concentration tetramer 2 μg/ml) in combination with CD3-APC. Tetramer binding is prevented by 1D12 and reduced by 1D22 (A). C1R-CD1d cells were incubated with DMSO controls or sulfatide (25 μg/ml) after which medium or anti-CD1d VHH were added at 1000 or 100 nM and incubated for 30 min. Next Jurkat-Vδ1 cells were added and the co-culture was incubated for an additional 24 h after which CD69 expression was determined by flow cytometry (B). N=3.
To evaluate the effect of 1D12 and 1D22 on CD1d-tetramer binding on Jurkat-Vδ1 cells, endogenous or sulfatide-loaded CD1d-PE tetramers were incubated with either PBS (control), 1D12 or 1D22 (ratio VHH:CD1d of ˜4:1) for 30 min at room temperature after which tetramers were added to Jurkat-Vδ1 cells (final concentration tetramer 2 μg/ml) in combination with CD3-APC and incubated for 45 min at 4 degrees Celsius. Data was analyzed by flow cytometry.

Jurkat-Vδ1 cells = test: Modulation of Jurkat-Vδ1 cell activation (C1R-CD1d co-culture, CD69); assay type: cell-based, human; details: C1R-CD1d pulsed with 25 μg/ml sulfatide; VHH 100 nM or 1000 nM; 24 hr
Method: as §1
iNKT cells are known to dock over the extreme F′ pocket of CD1d which contrasts with sulfatide-CD1d restricted Vδ1-T cells that dock more towards the A′ pocket. We therefore evaluated the effect of 1D12 and 1D22 on sulfatide-CD1d restricted Vδ1-T cells. To evaluate the effect of 1D12 and 1D22 on Jurkat-Vδ1 cell activation, 1×10^5 C1R-CD1d cells were seeded per well in a 96-well tissue culture plate and pulsed for 2 hr with vehicle control (DMSO 0.05%) or 25 μg/ml sulfatide. […] After 24 hr Jurkat-Vδ1 cells were harvested and analysed for CD69 expression by flow cytometry. […]

CD1d = molecular target: T2, CD1d (Homo sapiens, UniProt P15813); details: previously characterized; cited from earlier work
T2 construct: expressed in transfected cells; host or cells: MM.1s (human multiple myeloma cell line) stably transduced with CD1d
T2 sequence (P15813 20-335): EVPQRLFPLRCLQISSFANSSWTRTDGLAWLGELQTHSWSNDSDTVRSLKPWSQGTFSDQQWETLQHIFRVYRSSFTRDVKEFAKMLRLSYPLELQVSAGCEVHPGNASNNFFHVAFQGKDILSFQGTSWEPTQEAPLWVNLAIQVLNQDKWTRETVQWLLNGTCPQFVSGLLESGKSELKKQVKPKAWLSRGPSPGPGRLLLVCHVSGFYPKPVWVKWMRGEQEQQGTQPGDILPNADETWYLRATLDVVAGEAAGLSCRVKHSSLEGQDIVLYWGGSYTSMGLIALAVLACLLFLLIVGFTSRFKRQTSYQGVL
T2 sequence (P61769 21-119 partner): as the sequence (P61769 21-119 partner) above

## CC[C@H](C)C(=O)O[C@H]1CCC=C2C=C[C@H](C)[C@H](CC[C@@H]3C[C@@H](O)CC(=O)O3)[C@H]21 [mevastatin, reference compound]
Jeko-1 cells
  1D7-5C8-induced lysis of pretreated Jeko-1 cells: decreased bispecific antibody 1D7-5C8-induced lysis
  Vγ9Vδ2-T cell-mediated lysis of pretreated Jeko-1 cells: led to a reduction in lysis

## NCCC(O)(P(=O)(O)O)P(=O)(O)O [pamidronate, reference compound]
Jeko-1 cells
  1D7-5C8-induced lysis of pretreated Jeko-1 cells: led to an increase in bispecific antibody 1D7-5C8-induced lysis of Jeko-1 cells
  Vγ9Vδ2-T cell-mediated lysis of pretreated Jeko-1 cells: more sensitive to Vγ9Vδ2-T cell-mediated cytotoxicity
[1]
  Upregulation of activation marker CD25 on patient Vγ9Vδ2-T cells: 20.5 fold

B1: 1D22: anti-CD1d VHH, SEQ ID NO: 84 (protein)
VHH: QVQLVESGGGLVQAGGSLRLSCAASGSIFSINAMGAIRWSGESPYYADSVKGVISSSGSTNYADSVKGRFTISRDNAKNTAYLQMNSLKVEDTAVYYCAAHVAGFDEYNYWGQGTQVTVSS
modifications: antibody sequence
iNKT cells
  iNKT cell activation (CD25 expression) and cytokine production: completely blocked iNKT cell activation and cytokine production
[2]
  Binding of sulfatide-loaded CD1d tetramers to Jurkat-Vδ1 cells: only a limited impact
Jurkat-Vδ1 cells
  Jurkat-Vδ1 cell activation (CD69 expression): only a limited impact on expression of the activation marker CD69

B2: 1D7: CD1d-specific VHH, SEQ ID NO: 70 (protein)
VHH: EVQLVESGGGLVQAGGSLRLSCAASVSSFSSYTMGTIRTGGSTNYADSVKGGIRWDDENPYYADSVKGRFTISRDNAKNTLYLQMNSLKPEDTANYYCAARLVPPGIPFERTLENMRYWGKGTLVTVSS
modifications: antibody sequence
CD1d
  Affinity for CD1d: high affinity for CD1d
